Measurements from patent US20230063059A1, “SUBSTANCE INTERACTING WITH C TERMINAL FRAGMENT OF THE STIM1 FRACTION LOCALIZED TO THE PLASMA MEMBRANE OF THE CELLS, FOR ITS USE IN THE TREATMENT OF CANCERS, AND IN SCREENING AND DIAGNOSTIC METHODS” (UNIVERSITÉ DE BRETAGNE OCCIDENTALE - UBO, priority 2019, published 2023).

What was measured:
Format in all cases: cell-based
Details in all cases: Gemcitabine alone, low dose 15 nM, 48 hours
[1] = test system: Panc-1-Wt pancreatic cancer cells; assay: Cytotoxicity, Cell Tox green cytotoxicity assay
Protocol: (§1) For cell proliferation, cytotoxicity, and cell survival measurements, […] were seeded in 96 wells plates in 100 μL of DMEM medium. Cells were incubated for 48H hours at 37° C. with an anti-STIM1 antibody targeting the C terminal of STIM1 (CDN3H4, Santa Cruz; HPA011088 or HPA012123 clones, Sigma). Cell proliferation was evaluated using the Cell Titer kit proliferation assay (Promega). Cytotoxicity was evaluated using the Cell Tox green cytotoxicity assay (Promega) and cell survival measured using the CCK8 kit from Sigma. All these kits were used following manufacturer recommendations and using a plate reader
as §1, with “with 5 μg/ml of the” for “with an”, “Santa Cruz) alone, with 15 nM Gemcitabine alone” for “Santa Cruz; HPA011088”, “or with both 5 ug/ml of the anti-STIM1 clone CDN3H4 and 15 nM Gemcitabine. Relevant controls (isotype or/and DMSO treatments) were also realized.” for “or HPA012123 clones, Sigma).”

[2] = test system: Panc-1-Wt pancreatic cancer cells; assay: Cell survival, CCK8 kit
Protocol: as §1
as §1, with “with 5 μg/ml of the” for “with an”, “Santa Cruz) alone, with 15 nM Gemcitabine alone” for “Santa Cruz; HPA011088”, “or with both 5 ug/ml of the anti-STIM1 clone CDN3H4 and 15 nM Gemcitabine. Relevant controls (isotype or/and DMSO treatments) were also realized.” for “or HPA012123 clones, Sigma).”

[3] = test system: Panc-1-Wt pancreatic cancer cells; assay: Cell proliferation, Cell Titer kit proliferation assay
Protocol: as §1
as §1, with “with 5 μg/ml of the” for “with an”, “Santa Cruz) alone, with 15 nM Gemcitabine alone” for “Santa Cruz; HPA011088”, “or with both 5 ug/ml of the anti-STIM1 clone CDN3H4 and 15 nM Gemcitabine. Relevant controls (isotype or/and DMSO treatments) were also realized.” for “or HPA012123 clones, Sigma).”

Nc1ccn([C@@H]2O[C@H](CO)[C@@H](O)C2(F)F)c(=O)n1 [Gemcitabine]
cell cytotoxicity [1]: without inducing cell cytotoxicity | survival of pancreatic cancer cells [2]: slightly but significantly reduce | proliferation of pancreatic cancer cells [3]: slightly but significantly reduce
